Data on 54 compounds can be found in ChEMBL document CHEMBL5303710, “ECBD screening data for assay EOS300044” (2022).

The test deals with Replicase polyprotein 1ab (Severe acute respiratory syndrome coronavirus 2) (UniProt P0DTD1). As to the kind of experiment: Inhibition of SARS-CoV-2 3CL-Pro proteolytic cleavage of a dual-labeled substrate by FRET at 1mM DTT. Type of test: functional. Further details: assay stage.
Turning to `CC1=CC(=O)c2ccccc2C1=O`, the IC50 relative is over 20 µM.
The same measure for `CCOc1cc(C(Nc2cc(C)ccn2)c2ccc3cccnc3c2O)ccc1OC` (centres undefined): over 20 µM; for `Nc1ccc(O)c2ncccc12`: over 20 µM.
The same measure for `COc1ccc2[nH]c(S)nc2c1`: over 20 µM; for `O=C(c1cccs1)c1no[n+]([O-])c1C(=O)c1cccs1`: over 20 µM.
As for `O=C(Nc1ccccc1)Nc1ccc(-c2ccc(C(=O)[C@@H]3CCC[C@H]3C(=O)O)cc2)cc1`, the figure is over 20 µM.
For the compound `O=C(CCl)c1ccccc1`, the IC50 relative is 0.246 µM.
As for `COc1ccc2[nH]c([S+]([O-])Cc3ncc(C)c(OC)c3C)nc2c1` (centres undefined), the IC50 relative was over 20 µM.
Take `Sc1nnc(-c2ccccc2Cl)o1`: the IC50 relative is 7.71 µM.
As for `O=C1C(Cl)=C(Cl)C(=O)C(Cl)=C1Cl`, the figure is 0.183 µM; as for `O=[N+]([O-])c1ccc(Sc2cccc[n+]2[O-])c2nonc12`, 0.53 µM.
Consider `CN1CCN(C(=O)c2ccc(-c3ccc4c(C=O)c(O)ccc4c3)s2)CC1`, for which the IC50 relative is 5.65 µM.
As for `O=C(O)c1c(Cl)c(Cl)c(Cl)c(Cl)c1-c1c2cc(I)c(=O)c(I)c-2oc2c(I)c(O)c(I)cc12`, the figure is over 20 µM; as for `O=C(CC1Sc2ncnn2C1=O)Nc1ccc(Br)cc1` (centres undefined), over 20 µM.
`CN(C)S(=O)(=O)c1cccc(-n2sc3ccccc3c2=O)c1`: the IC50 relative is under 0.02 µM.
For `CCCCn1c(NC(=O)c2cccs2)c(C#N)c2nc3ccccc3nc21`, the IC50 relative is over 20 µM.
As for `Sc1nnnn1-c1ccccc1`, the figure is over 20 µM; as for `COC(=O)CC[C@H](NC(=O)[C@H](CC(=O)OC)NC(=O)OCc1ccccc1)C(=O)N[C@H](C(=O)N[C@@H](CC(=O)OC)C(=O)CF)C(C)C`, under 0.02 µM.
As to `Cc1ccc(S(=O)(=O)N[C@@H](Cc2ccccc2)C(=O)CCl)cc1`, the IC50 relative is 0.839 µM.
The same measure for `Oc1cc2c(cc1C(c1ccc(C(F)(F)F)cc1)N1CCOCC1)OCO2` (centres undefined): over 20 µM; for `O=C(NC(=S)N1CCCc2ccccc21)c1ccccc1`: over 20 µM; for `CCN(CC)S(=O)(=O)c1cccc(-n2sc3ccccc3c2=O)c1`: under 0.02 µM.
As for `Cc1ccc(C)c(-n2sc3cc(F)ccc3c2=O)c1`, the figure is under 0.02 µM.
The same measure for `CCOC(=O)c1c(N)sc(-c2ccccc2)c1C`: 3.61 µM; for `Cn1sc(=O)n(Cc2ccccc2)c1=O`: under 0.02 µM; for `S=C=Nc1cccc(NC(=S)NCCCCNC(=S)Nc2cccc(N=C=S)c2)c1`: over 20 µM.
`COc1ncc(-c2ccc3nccc(-c4ccnnc4)c3c2)cc1NS(=O)(=O)c1ccc(F)cc1F`: the IC50 relative was over 20 µM.
As to `S=C=NCc1ccccc1`, the IC50 relative was over 20 µM.
The same measure for `CCN(CC)C(=S)S`: over 20 µM; for `Cc1cc(C)cc(N2C(=O)CC(Sc3nc[nH]n3)C2=O)c1` (centres undefined): over 20 µM; for `COc1cc(N(C)C)cc(CN(C)CCc2ccc([N+](=O)[O-])cc2)c1O`: over 20 µM.
The same measure for `Nc1nc(S)c2ncn(C3OC(CO)C(O)C3O)c2n1` (centres undefined): 1.45 µM; for `O=C(O)[C@@H](S)[C@@H](S)C(=O)O`: 0.0836 µM; for `O=C(/C=C/c1ccc2ccccc2n1)c1ccncc1`: 0.191 µM.
For `Cc1c(OCC(F)(F)F)ccnc1C[S+]([O-])c1nc2ccccc2[nH]1` (centres undefined), the IC50 relative is over 20 µM.
The same measure for `CC(Cc1ccc(O)c(O)c1)C(C)Cc1ccc(O)c(O)c1` (centres undefined): over 20 µM; for `COc1ccc2[nH]c3c(S)ncnc3c2c1`: over 20 µM.
In the case of `Oc1cc2c(cc1O)C(c1ccccc1)CNCC2` (centres undefined), the IC50 relative was over 20 µM.
Consider `O=c1cc(-c2ccccc2)oc2cc(O)c(O)c(O)c12`, for which the IC50 relative was over 20 µM.
The same measure for `O=C1C(Cl)=C(N2CCOCC2)C(=O)N1c1ccc(Cl)c(Cl)c1`: over 20 µM.
Consider `COc1ccnc(C[S+]([O-])c2nc3cc(OC(F)F)ccc3[nH]2)c1OC` (centres undefined), for which the IC50 relative was over 20 µM.
The same measure for `CC(C)(C)OC(=O)NCCc1nnc(S(=O)(=O)Cc2ccc(Cl)cc2Cl)o1`: 7.29 µM; for `O=c1c2ccccc2sn1-c1ccccc1`: under 0.02 µM.
The same measure for `NC(Cc1cc(O)c(O)cc1O)C(=O)O` (racemic): over 20 µM.
The same measure for `Cc1ccc(-n2sc(=O)n(Cc3ccc(F)cc3)c2=O)cc1`: 0.148 µM.
For `Cc1cc(-c2ccc(/N=N/c3ccc4c(S(=O)(=O)O)cc(S(=O)(=O)O)c(N)c4c3O)c(C)c2)ccc1/N=N/c1ccc2c(S(=O)(=O)O)cc(S(=O)(=O)O)c(N)c2c1O`, the IC50 relative is 0.0219 µM.
As for `Cc1cc(-c2ccc(/C=C3/S/C(=N\c4ccc(Cl)c(C(=O)O)c4)NC3=O)o2)c([N+](=O)[O-])cc1C`, the figure is over 20 µM; as for `CCN1CCN(C(c2ccc(C(F)(F)F)cc2)c2ccc3cccnc3c2O)CC1` (centres undefined), 1.34 µM.
Take `Cc1ccc(-n2sc3ccccc3c2=O)cc1`: the IC50 relative was under 0.02 µM.
The same measure for `Cc1c(-c2ccc(N3CCc4cccc(C(=O)Nc5nc6ccccc6s5)c4C3)nc2C(=O)O)cnn1CC12CC3CC(CC(C3)C1)C2`: over 20 µM.
As for `Sc1nnc(Nc2ccccc2)s1`, the figure is over 20 µM.
As to `c1ccc2sc(SSc3nc4ccccc4s3)nc2c1`, the IC50 relative is 0.537 µM.
As to `O=c1c(O)cccc2cc(O)c(O)c(O)c12`, the IC50 relative was over 20 µM.
Turning to `O=C(c1ccc(Cl)cc1)c1cc([N+](=O)[O-])ccc1N1CCOCC1`, the IC50 relative is over 20 µM.
